Measured values reported in ChEMBL document CHEMBL1201862, “PubChem BioAssay data set” (2004).
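All cell lines were grown in 96-well plates and treated with compound for 48 hours. Abbreviation: GI50, concentration required for 50% inhibition of growth.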 Activity calls are given as the source filed them. Cut-off read from the data, not from the text of the source: active = GI50 up to about 1.1 µM and inactive = higher.

Key:
Experiment in all cases: NCI tumour cell line growth inhibition, 48 h
RXF 393 = tested on: RXF 393
SK-MEL-28 = tested on: SK-MEL-28
SF-539 = tested on: SF-539
OVCAR-5 = tested on: OVCAR-5
HOP-92 = tested on: HOP-92
NCI-H226 = tested on: NCI-H226
UACC-257 = tested on: UACC-257
MDA-N = tested on: MDA-N
Malme-3M = tested on: Malme-3M
M14 = tested on: M14
DU-145 = tested on: DU-145
SK-OV-3 = tested on: SK-OV-3
CCRF-CEM = tested on: CCRF-CEM
KM12 = tested on: KM12
PC-3 = tested on: PC-3
U-251 = tested on: U-251
SNB-75 = tested on: SNB-75
SW-620 = tested on: SW-620
NCI-H522 = tested on: NCI-H522
A549 = tested on: A549

Measured: GI50

CCOC(=O)c1cc2cc(Cc3ccc4[nH]c(C(=O)OCC)cc4c3)ccc2[nH]1
inactive: RXF 393 9.18 µM | SK-MEL-28 29.4 µM | SF-539 13.7 µM | OVCAR-5 > 100 µM | HOP-92 12.3 µM | NCI-H226 18.6 µM | UACC-257 43.6 µM | MDA-N 84.1 µM | Malme-3M 37.1 µM | M14 > 100 µM | DU-145 31.3 µM | SK-OV-3 13.6 µM | CCRF-CEM 57.5 µM | KM12 23.7 µM | PC-3 34.3 µM | U-251 11.2 µM | SNB-75 12.2 µM | SW-620 63.5 µM

c1ccc2c(c1)-c1nc3ccccc3cc1C2N1CCOCC1 (stereo not drawn)
inactive: RXF 393 > 100 µM | SK-MEL-28 > 100 µM | OVCAR-5 > 100 µM | NCI-H226 > 100 µM | NCI-H522 43.5 µM | UACC-257 > 100 µM | MDA-N > 100 µM | A549 > 100 µM | Malme-3M > 100 µM | M14 > 100 µM | DU-145 > 100 µM | SK-OV-3 > 100 µM | CCRF-CEM 28.4 µM | KM12 > 100 µM | PC-3 > 100 µM | U-251 > 100 µM | SNB-75 > 100 µM | SW-620 > 100 µM

CC1CC[C@@H](C(C)C)[C@H](Oc2nnc(C3OC(CO)C(O)C3O)o2)C1 (stereo partly drawn)
inactive: RXF 393 > 100 µM | SF-539 > 100 µM | OVCAR-5 > 100 µM | HOP-92 > 100 µM | NCI-H226 > 100 µM | UACC-257 > 100 µM | MDA-N > 100 µM | A549 > 100 µM | Malme-3M > 100 µM | DU-145 > 100 µM | SK-OV-3 > 100 µM | CCRF-CEM > 100 µM | KM12 > 100 µM | PC-3 > 100 µM | U-251 > 100 µM | SNB-75 > 100 µM | SW-620 > 100 µM

NC(=O)C(=CNC(N)=S)C(N)=O
inactive: RXF 393 > 100 µM | SK-MEL-28 > 100 µM | SF-539 > 100 µM | OVCAR-5 > 100 µM | NCI-H226 > 100 µM | NCI-H522 > 100 µM | UACC-257 > 100 µM | MDA-N > 100 µM | A549 > 100 µM | Malme-3M > 100 µM | M14 > 100 µM | DU-145 > 100 µM | SK-OV-3 > 100 µM | CCRF-CEM > 100 µM | KM12 > 100 µM | PC-3 > 100 µM | U-251 > 100 µM | SNB-75 > 100 µM | SW-620 > 100 µM

O=[N+]([O-])c1ccc(-n2nc3ccc4c(no[n+]4[O-])c3n2)cc1
inactive: SK-MEL-28 > 100 µM | SF-539 > 100 µM | OVCAR-5 > 100 µM | HOP-92 5.82 µM | NCI-H226 > 100 µM | NCI-H522 > 100 µM | UACC-257 > 100 µM | MDA-N > 100 µM | A549 12.4 µM | Malme-3M > 100 µM | M14 > 100 µM | DU-145 35.4 µM | SK-OV-3 > 100 µM | CCRF-CEM > 100 µM | KM12 > 100 µM | PC-3 5.55 µM | U-251 > 100 µM | SNB-75 61.7 µM | SW-620 > 100 µM

COC(=O)C1Cc2ccc3c(c2C1=O)CCCC3 (stereo not drawn)
inactive: SK-MEL-28 > 100 µM | SF-539 > 100 µM | OVCAR-5 > 100 µM | NCI-H226 92.9 µM | NCI-H522 > 100 µM | UACC-257 > 100 µM | MDA-N > 100 µM | A549 > 100 µM | Malme-3M > 100 µM | M14 > 100 µM | DU-145 > 100 µM | SK-OV-3 > 100 µM | CCRF-CEM 39.2 µM | KM12 > 100 µM | PC-3 26.2 µM | U-251 61.9 µM | SNB-75 89.7 µM | SW-620 86.5 µM

O=c1c2nc3ccccc3c(=O)n2ncn1-c1ccccc1Cl
inactive: SK-MEL-28 > 100 µM | SF-539 > 100 µM | OVCAR-5 > 100 µM | HOP-92 > 100 µM | NCI-H226 > 100 µM | NCI-H522 > 100 µM | UACC-257 > 100 µM | MDA-N > 100 µM | A549 > 100 µM | Malme-3M > 100 µM | M14 > 100 µM | DU-145 > 100 µM | SK-OV-3 > 100 µM | CCRF-CEM > 100 µM | KM12 > 100 µM | PC-3 > 100 µM | U-251 > 100 µM | SNB-75 > 100 µM | SW-620 > 100 µM
